From patent publication US20260125360A1, “HERBICIDAL IMIDAZOLE COMPOUNDS” (SYNGENTA CROP PROTECTION AG, priority 2022, published 2026)

How the values were obtained:
Format in all cases: in vivo
Conditions in all cases: 250 g/ha, evaluated after 13 days
[1] = tested on: Amaranthus palmeri (AMAPA); assay: Post-emergence herbicide glasshouse test
Experimental: (§1) Seeds of a variety of test species are sown in standard soil in pots Amaranthus palmeri (AMAPA), Amaranthus retoflexus (AMARE), Echinochloa crus-galli (ECHCG), Ipomoea hederacea (IPOHE)). After cultivation for one day (pre-emergence) or after 8 days cultivation (post-emergence) under controlled conditions in a glasshouse (at 24/16° C., day/night; 14 hours light; 65% humidity), the plants are sprayed with an aqueous spray solution derived from the formulation of the technical active ingredient in acetone/water (50:50) solution containing 0.5% Tween 20 (polyoxyethelyene sorbitan monolaurate, CAS RN 9005-64-5). Compounds are applied at 250 g/ha unless otherwise stated. The test plants are then grown in a glasshouse under controlled conditions in a glasshouse (at 24/16° C., day/night; 14 hours light; 65% humidity) and watered twice daily. After 13 days for pre and post-emergence, the test is evaluated for the percentage damage caused to the plant. The biological activities are shown in the following table on a five-point scale (5=81-100%; 4=61-80%; 3=41-60%; 2=21-40%; 1=0-20%).

[2] = tested on: Echinochloa crus-galli (ECHCG); assay: Post-emergence herbicide glasshouse test
Experimental: as §1

[3] = tested on: Amaranthus retoflexus (AMARE); assay: Post-emergence herbicide glasshouse test
Experimental: as §1

[4] = tested on: Ipomoea hederacea (IPOHE); assay: Post-emergence herbicide glasshouse test
Experimental: as §1

[5] = tested on: Amaranthus palmeri (AMAPA); assay: Pre-emergence herbicide glasshouse test
Experimental: as §1

[6] = tested on: Echinochloa crus-galli (ECHCG); assay: Pre-emergence herbicide glasshouse test
Experimental: as §1

[7] = tested on: Amaranthus retoflexus (AMARE); assay: Pre-emergence herbicide glasshouse test
Experimental: as §1

[8] = tested on: Ipomoea hederacea (IPOHE); assay: Pre-emergence herbicide glasshouse test
Experimental: as §1

SMILES | percentage damage caused to the plant, AMAPA (five-point scale) [1] | percentage damage caused to the plant, ECHCG (five-point scale) [2] | percentage damage caused to the plant, AMARE (five-point scale) [3] | percentage damage caused to the plant, IPOHE (five-point scale) [4] | percentage damage caused to the plant, AMAPA (five-point scale) [5] | percentage damage caused to the plant, ECHCG (five-point scale) [6] | percentage damage caused to the plant, AMARE (five-point scale) [7] | percentage damage caused to the plant, IPOHE (five-point scale) [8]
CN(C)S(=O)(=O)c1cc(Cn2cc(C(F)(F)F)nc2-c2ccc(Cl)nc2)co1 [Compound 1.144] | 1 (1=0-20%) | 1 (1=0-20%) | 1 (1=0-20%) | 1 (1=0-20%) | 1 (1=0-20%) | 1 (1=0-20%) | 1 (1=0-20%) | 1 (1=0-20%)
Cc1nnc(Cn2cc(C(F)(F)F)nc2-c2ccc(Cl)nc2)s1 [Compound 1.065] | 5 (5=81-100%) | 1 (1=0-20%) | 5 (5=81-100%) | 1 (1=0-20%) | 5 (5=81-100%) | 1 (1=0-20%) | 5 (5=81-100%) | 5 (5=81-100%)
CCc1nc(Cn2cc(C(F)(F)F)nc2-c2ccc(Cl)nc2)no1 [Compound 1.090] | 5 (5=81-100%) | 4 (4=61-80%) | 5 (5=81-100%) | 5 (5=81-100%) | 5 (5=81-100%) | 4 (4=61-80%) | 5 (5=81-100%) | 5 (5=81-100%)
N#Cc1ccc(Cn2cc(C(F)(F)F)nc2-c2ccc(C(F)(F)F)cc2)s1 [Compound 1.001] | 4 (4=61-80%) | 2 (2=21-40%) | 4 (4=61-80%) | 3 (3=41-60%) | 5 (5=81-100%) | 2 (2=21-40%) | 4 (4=61-80%) | 2 (2=21-40%)
Cn1cnc(Cn2cc(C(F)(F)F)nc2-c2ccc(Cl)nc2)n1 [Compound 1.087] | 5 (5=81-100%) | 5 (5=81-100%) | 5 (5=81-100%) | 5 (5=81-100%) | 5 (5=81-100%) | 5 (5=81-100%) | 5 (5=81-100%) | 5 (5=81-100%)
Cn1cnc(Cn2cc(C(F)(F)F)nc2-c2ccc(C(F)(F)F)cc2)n1 [Compound 1.003, 1-methyl-3-[[4-(trifluoromethyl)-2-[4-(trifluoromethyl)phenyl]imidazol-1-yl]methyl]-1,2,4-triazole] | 4 (4=61-80%) | 4 (4=61-80%) | 4 (4=61-80%) | 5 (5=81-100%) | 5 (5=81-100%) | 5 (5=81-100%) | 5 (5=81-100%) | 5 (5=81-100%)
FC(F)n1ccc(Cn2cc(C(F)(F)F)nc2-c2ccc(Cl)nc2)n1 [Compound 1.051] | 5 (5=81-100%) | 1 (1=0-20%) | 5 (5=81-100%) | 4 (4=61-80%) | 5 (5=81-100%) | 1 (1=0-20%) | 5 (5=81-100%) | 5 (5=81-100%)
CCON=Cc1cn(Cc2cc(C)on2)c(-c2cnc(Cl)c(F)c2)n1 [Compound 1.179] | 3 (3=41-60%) | 1 (1=0-20%) | 3 (3=41-60%) | 1 (1=0-20%) | 5 (5=81-100%) | 1 (1=0-20%) | 4 (4=61-80%) | 1 (1=0-20%)
Cc1cc(Cn2cc(C(F)(F)F)nc2-c2ccc(Cl)nc2)n(C)n1 [Compound 1.147] | 2 (2=21-40%) | 1 (1=0-20%) | 3 (3=41-60%) | 3 (3=41-60%) | 2 (2=21-40%) | 1 (1=0-20%) | 2 (2=21-40%) | 4 (4=61-80%)
CC(C)(C)c1nc(Cn2cc(C(F)(F)F)nc2-c2ccc(C(F)(F)F)cc2)no1 [Compound 1.004] | 1 (1=0-20%) | 1 (1=0-20%) | 1 (1=0-20%) | 2 (2=21-40%) | 1 (1=0-20%) | 1 (1=0-20%) | 1 (1=0-20%) | 1 (1=0-20%)
CCON=Cc1cn(Cc2ncn(C)n2)c(-c2cnc(Cl)c(F)c2)n1 [Compound 1.172] | 2 (2=21-40%) | 2 (2=21-40%) | 3 (3=41-60%) | 2 (2=21-40%) | 5 (5=81-100%) | 5 (5=81-100%) | 5 (5=81-100%) | 5 (5=81-100%)
Cc1cc(Cn2cc(C(F)(F)F)nc2-c2cnc(F)c(Cl)c2)no1 [Compound 1.163] | 5 (5=81-100%) | 5 (5=81-100%) | 5 (5=81-100%) | 4 (4=61-80%) | 5 (5=81-100%) | 5 (5=81-100%) | 5 (5=81-100%) | 5 (5=81-100%)
FC(F)(F)c1cn(Cc2ncco2)c(-c2ccc(Cl)nc2)n1 [Compound 1.118] | 3 (3=41-60%) | 1 (1=0-20%) | 3 (3=41-60%) | 3 (3=41-60%) | 5 (5=81-100%) | 1 (1=0-20%) | 5 (5=81-100%) | 5 (5=81-100%)
Cn1cnc(Cn2cc(C(F)F)nc2-c2cnc(Cl)c(F)c2)n1 [Compound 1.015, 2-chloro-5-[4-(difluoromethyl)-1-[(1-methyl-1,2,4-triazol-3-yl)methyl]imidazol-2-yl]-3-fluoro-pyridine] | 5 (5=81-100%) | 3 (3=41-60%) | 5 (5=81-100%) | 5 (5=81-100%) | 5 (5=81-100%) | 4 (4=61-80%) | 5 (5=81-100%) | 5 (5=81-100%)
Cc1noc(C)c1Cn1cc(C(F)(F)F)nc1-c1ccc(Cl)nc1 [Compound 1.141] | 1 (1=0-20%) | 1 (1=0-20%) | 1 (1=0-20%) | 1 (1=0-20%) | 1 (1=0-20%) | 1 (1=0-20%) | 1 (1=0-20%) | 1 (1=0-20%)
